Measurements from the METLIN SMRT retention time set (Domingo-Almenara et al. 2019).

Test: gradient 5% acetonitrile 3 min, to 50% in 2 min, to 85% in 15 min, held 3 min, 100 µL/min
Conditions: column: Zorbax Extend-C18 2.1 x 50 mm; eluents: water / acetonitrile, 0.1% formic acid
Procedure, shortened: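 Pure standards were analyzed in mixtures of ~100 molecules using HPLC coupled to a quadrupole time-of-flight mass spectrometer, in both positive and negative ionization mode. Separation used a Zorbax Extend-C18 column (2.1 × 50 mm, 1.8 μm) at 100 μL/min, with water and acetonitrile each containing 0.1% formic acid. Dead and dwell volumes were 40 μL and 900 μL, and data were collected over 3 months. Retention time was read from computationally picked adduct peaks, each inspected manually.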

| SMILES | RP-LC retention time [s] |
| --- | --- |
| O=C(Cn1ccn2nc(-c3ccc(F)cc3)c(CO)c2c1=O)Nc1cc(F)ccc1Cl | 894 |
| CCC(C)NC(=O)c1nc(Cn2c(=O)oc3ccc(Cl)cc32)no1 (centres undefined) | 922 |
| CCc1ccccc1NC(=O)Cn1cnc2c(sc3nc(-c4ccccc4)ccc32)c1=O | 1030 |
| CCc1ccc(S(=O)(=O)N2CCCC2c2nc(-c3cccc(Cl)c3)no2)cc1 (centres undefined) | 1300 |
| Cc1ccc(S(=O)(=O)NCCCC(=O)NCc2ccccc2)cc1 | 732 |
| Cc1ccc(NC(=O)c2sc(-n3cccc3)nc2C(C)C)cc1F | 1320 |
| CC(C)Cn1cc(CCNC(=O)Nc2cccc(Cl)c2)c2cccnc21 | 895 |
| CCc1nc2cc(-c3noc(COc4ccccc4C)n3)ccc2o1 | 1270 |
| Cc1c(C(=O)N(C)C)cnn1-c1ccc(-c2nc(C3CC3)no2)cn1 | 790 |
| COc1ccc(N2CCN(C(=O)c3ccc(=O)n(CCN4CCCC4)c3)CC2)cc1 | 586 |
| CCC(C)NC(=O)C1CCCN(c2cnc3nccnc3c2)C1 (centres undefined) | 608 |
| O=C(Cn1cnc2nc3c(cc2c1=O)CCCC3)Nc1ccc(Cl)cc1 | 761 |
| CC(=O)Oc1cc(C(C)C)c(OCCN(C)C)cc1C | 708 |
| COC(=O)C1=C(C)NC(C)=C(C(=O)OCCN2CCN(C(c3ccccc3)c3ccccc3)CC2)C1c1cccc([N+](=O)[O-])c1 (centres undefined) | 1020 |
| CCS(=O)(=O)N1CCCc2cc(C(=O)NCC3CCCO3)ccc21 (centres undefined) | 708 |
| CCOc1ccc(NC(=O)N2CCN(Cc3nc4ccccc4o3)CC2)cc1 | 681 |
| COc1ccc(NC(=O)CCC2CCN(c3cc(NC4CC4)ncn3)CC2)c(OC)c1 | 688 |
| Oc1cc2c(cc1O)C(c1ccccc1)CNCC2 (centres undefined) | 585 |
| CCOc1ccc(NC(=O)N2CCC(CN3CCCC(C)C3)CC2)cc1 (centres undefined) | 639 |
| Cc1ccc(CNc2c(-c3ccc(F)cc3)nc3ncccn23)cc1 | 789 |
| O=c1c2cc(-c3ccc(F)cc3)nn2ccn1Cc1noc(CN2CCCCCCC2)n1 | 719 |
| CCN1C(=O)COc2ccc(-c3nc(NC(=O)C4CCCCC4)sc3C)cc21 | 652 |
| CCN1CCCC1CNC(=O)C(C)n1c2ccccc2c2cnn(C)c(=O)c21 (centres undefined) | 615 |

| SMILES | RP-LC retention time [s] |
| --- | --- |
| CCOc1ccc(C(=O)N2CCCC2c2nc(-c3ccc(OC)c(OC)c3)no2)cc1 (centres undefined) | 927 |
| O=C(NCc1ccc(C(F)(F)F)cc1)c1cn2ccccc2n1 | 746 |
| Nc1ccccc1-n1nc2ccc3ccccc3c2n1 | 1220 |
| CCCCOC(=O)c1ccc(Nc2c(C(=O)N(CC)CC)cnc3nc(C)ccc23)cc1 | 720 |
| COc1ccc(C(C)NC(=O)C2CCN(c3nccnc3Sc3ccc(C)cc3)CC2)cc1 (centres undefined) | 1060 |
| O=C(Cc1cccc2ccccc12)NCC1CCN(Cc2cccs2)CC1 | 572 |
| O=C(C1CCN(c2cncnc2N2CCOCC2)CC1)N1CCN(c2ccccc2)CC1 | 629 |
| CC(=O)N1CCc2ccc(C(=O)N3CCCCCC3)cc21 | 709 |
| COc1ccc(OC)c(S(=O)(=O)N2C[C@@H](F)C[C@H]2C(=O)N2CCOCC2)c1 | 906 |
| CCNC(=O)N1CCC2(CC1)c1nccn1-c1ccccc1CN2CC(C)C | 623 |
| COc1ccc(-c2csc(NC(=O)c3sc(C)nc3C)n2)cc1 | 886 |
| Cc1sc(C)c(S(=O)(=O)NC2CCCCC2)c1-c1cc(C(F)(F)F)on1 | 1200 |
| Cc1cccc(-c2noc(C3CCCN3S(=O)(=O)c3c(C)c(C)cc(C)c3C)n2)c1 (centres undefined) | 849 |
| COc1ccc(NC(=O)CN2C(=O)NC3(CCCCC3)C2=O)cc1 | 723 |
| COc1cc(OC)cc(-c2nc(Cn3c(C)nc4ccccc4c3=O)no2)c1 | 876 |
| COc1cc(NC(=O)c2c(S(=O)(=O)Nc3ccc(Cl)cc3)n[nH]c2C)cc(OC)c1 | 886 |
| Cc1ccc(C(=O)N2CCN(c3cc(-c4cccs4)[nH]n3)CC2)c(C)c1 | 831 |
| CCc1ccc(NC(=O)Cc2nnc3cc(-c4nc(C)no4)ccn23)cc1 | 780 |
| CN1Cc2ccccc2-n2ccnc2C12CCN(C(=O)c1cc(F)cc(F)c1)CC2 | 618 |
| CC1CCc2[nH]nc(C(=O)N3CCCCC3)c2C1 (centres undefined) | 757 |
| O=C(Nc1nc2c(s1)CCc1ccccc1-2)c1ccc(S(=O)(=O)N2CCCC2)cc1 | 1110 |
| CCNc1ncnc2sc3c(c12)CCN(S(=O)(=O)c1ccccc1)C3 | 805 |
| Cc1ccc(CN2C(=O)N(c3ccc(F)cc3)c3ncccc3S2(=O)=O)cc1 | 1100 |

| SMILES | RP-LC retention time [s] |
| --- | --- |
| O=C(CCSc1ccc(F)cc1)Nc1nnc(-c2ccco2)o1 | 729 |
| O=C(CN1C(=O)CCCc2cc(S(=O)(=O)N3CCCC3)ccc21)Nc1cccc(Cl)c1 | 890 |
| COc1ccc(NC(=O)C2CCCN(S(=O)(=O)c3c[nH]c(C(=O)N4CCCC4)c3)C2)cc1Cl (centres undefined) | 819 |
| COc1ccc(-c2cc3c(=O)n(Cc4nc(-c5ccccc5)oc4C)ccn3n2)cc1 | 936 |
| O=C(CSc1nnc(-c2csc3c2CCCC3)o1)Nc1ccccc1 | 769 |
| O=C(CSc1nnc(-c2cccc(Br)c2)o1)c1ccc([N+](=O)[O-])cc1 | 1020 |
| COc1cccc(N2C(=O)N(Cc3cccc(F)c3)S(=O)(=O)c3cccnc32)c1 | 1010 |
| O=C(CCC(=O)N1CCCC1c1nc2ccccc2s1)N1CCN(c2ccccc2)CC1 (centres undefined) | 812 |
| COc1ccc(C(C)NC(=O)Cc2c[nH]c3ncccc23)cc1OC (centres undefined) | 664 |
| Cc1nc(-c2csc(S(=O)(=O)N3CCC(C(=O)NC4CC4)CC3)c2)no1 | 723 |
| CCS(=O)(=O)c1ccc(-c2ccc(NC(=O)c3ccc(Br)o3)cc2)nn1 | 765 |
| Cc1nn(C)c2c(N3CCC(C(=O)N4CCN(CC(=O)N5CCOCC5)CC4)CC3)nccc12 | 560 |
| CN(CCNC(=O)c1cccc(N2CCNC(c3ccccc3)C2)n1)C1CCCCC1 (centres undefined) | 573 |
| COc1cc(NC(=O)Nc2nccn(-c3ccc(C)c(Cl)c3)c2=O)cc(OC)c1 | 1060 |
| CCn1c(-c2ccccc2)cc(C(=O)N(C)C)c1C | 697 |
| O=C(c1cccc2[nH]ccc12)N1CCC2(CC1)N=C(c1cccc(Br)c1)NO2 | 849 |
| CN(C)c1cccc(F)c1C(=O)NC(=O)Nc1ccc(Cl)cc1 | 990 |
| CCOc1ccc(CNC(=O)C2CCCN(C(=O)c3[nH]c(C)c(C(=O)OC)c3C)C2)cc1 (centres undefined) | 751 |
| O=C(NCCN1CCCC1)c1nc2ccccn2c1-c1ccc(F)cc1 | 611 |
| Cc1ccc(S(=O)(=O)/C=C/C#N)cc1 | 929 |
| O=C(O)c1cccc2c1CCN2C(=O)Nc1ccc(F)cc1 | 782 |
| CCCN1CCN(c2ccc(NC(=O)C3CCC3)c(C(=O)O)c2)CC1 | 561 |
| Cn1cccc1C(=O)N1CCC(OCc2nc(C3CC3)no2)CC1 | 799 |

| SMILES | RP-LC retention time [s] |
| --- | --- |
| Cc1ccc2ncn(C3CCN(C(=O)Nc4ccc(F)cc4F)CC3)c(=O)c2c1 | 770 |
| O=C(Cn1ccc2ccc(N3CCOCC3)nc21)N1CCN(c2ccc(F)cc2)CC1 | 898 |
| COC(=O)c1ccc(CSc2nnc(NC(=O)c3cc(C)on3)s2)o1 | 737 |
| CN(C)S(=O)(=O)c1ccc2c(c1)N(CC(=O)NCc1ccco1)C(=O)C1CCCCN21 (centres undefined) | 820 |
| CCOC(=O)c1c(CN2CCOCC2)n(C)c2cc(Br)c(OC)cc12 | 698 |
| Cc1ccc(CN2CC[C@]3(CO)CN(Cc4ccccc4)C[C@@H]3C2)cc1C | 570 |
| CC(NC(=O)C1CCN(c2ncnc3c2oc2ccccc23)CC1)c1ccccc1 (centres undefined) | 735 |
| CN(C)CCNc1nnc(-c2nc(-c3ccc(F)cc3)no2)c2ccccc12 | 687 |
| CN(CC1CCOC1)C(=O)c1ccccc1Cl (centres undefined) | 681 |
| Cc1nn(-c2ccccc2)c2sc(C(=O)Oc3ccc(F)cc3)cc12 | 1380 |
| O=C(/C=C/c1ccccc1)NC(Cc1ccccc1)C(=O)N1CCN(c2ccccn2)CC1 (centres undefined) | 692 |
| CCCNC(=O)CCc1nc2ccccc2n(CC(=O)Nc2ccc(OC)c(OC)c2)c1=O | 1110 |
| O=C(CN1CC(c2nc(-c3cccc(Cl)c3)no2)C1)NCC1CCCO1 (centres undefined) | 590 |
| CCC(=O)NCc1nc2c(n1CC)CN(S(=O)(=O)c1ccc(F)cc1)CC2 | 575 |
| COc1ccc(S(=O)(=O)N2CCCC(Cn3c(C)nc4cccnc43)C2)cc1 (centres undefined) | 688 |
| CN(c1ccccc1)S(=O)(=O)c1ccc(C(=O)Nc2nnc(C3=COCCO3)o2)cc1 | 744 |
| Cc1cc(C)cc(NC(=O)N2CCC3(CC2)NC(=O)c2ccccc2N3C)c1 | 808 |
| COC1CCC12CCN(C(=O)Nc1ccc3c(c1)OCCO3)CC2 (centres undefined) | 742 |
| COc1cc(C2C(C(=O)N3CCOCC3)=C(C)NC3=C2C(=O)CCC3)ccc1OC(C)=O (centres undefined) | 622 |
| Cc1cccc2c1ncn1c(=O)n(CC(=O)NCc3ccccc3Cl)nc21 | 627 |
